Non-standard residues stand in square brackets, D forms with d. Residues, ends and D or L forms follow the SMILES beside them. Nle = CCCC[C@H](N)C(=O)O; Sar = CNCC(=O)O
These compounds were tested against T1, furin (Homo sapiens, UniProt P09958) (assay: biochemical). Settings: furin, Pyr-RTKR-AMC substrate; alanine scanning mutagenesis of the H5 furin cleavage sequence (Table 2); read-out: Ki.
T1 construct: made in house; host or cells: Drosophila S2 cells (Invitrogen expression system)
T1 sequence (P09958 108-794 limits assumed): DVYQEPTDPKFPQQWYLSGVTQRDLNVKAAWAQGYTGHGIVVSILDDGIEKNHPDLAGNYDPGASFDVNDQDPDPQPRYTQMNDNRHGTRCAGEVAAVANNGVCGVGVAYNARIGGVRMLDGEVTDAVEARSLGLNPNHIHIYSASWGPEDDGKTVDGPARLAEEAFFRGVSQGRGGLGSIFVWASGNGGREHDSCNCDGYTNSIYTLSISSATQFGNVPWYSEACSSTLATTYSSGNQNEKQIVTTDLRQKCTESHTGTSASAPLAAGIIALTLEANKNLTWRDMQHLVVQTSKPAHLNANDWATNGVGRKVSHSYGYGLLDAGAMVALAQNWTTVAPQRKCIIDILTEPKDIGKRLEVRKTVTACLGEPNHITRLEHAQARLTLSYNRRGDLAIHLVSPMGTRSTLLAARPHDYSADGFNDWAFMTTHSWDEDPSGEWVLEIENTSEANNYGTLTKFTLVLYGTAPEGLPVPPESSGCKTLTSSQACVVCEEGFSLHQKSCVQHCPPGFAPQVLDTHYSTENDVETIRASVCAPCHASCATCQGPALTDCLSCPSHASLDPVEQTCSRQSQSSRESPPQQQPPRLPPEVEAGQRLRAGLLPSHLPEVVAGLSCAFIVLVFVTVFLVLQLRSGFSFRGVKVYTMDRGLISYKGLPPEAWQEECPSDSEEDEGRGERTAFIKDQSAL

| Structure (SMILES) | Ki |
| --- | --- |
| C[C@H](N)C(=O)N1CCC[C@H]1C(=O)N[C@@H](CCCNC(=N)N)C(=O)N[C@@H](CCC(=O)O)C(=O)N[C@@H](CCCNC(=N)N)C(=O)N[C@@H](CCCNC(=N)N)C(=O)N[C@@H](CCCNC(=N)N)C(=O)N[C@@H](CCCCN)C(=O)N[C@@H](CCCCN)C(=O)N[C@@H](CCCNC(=N)N)C(N)=O (H-APRERRRKKR-NH2) | > 100 nM |
| CC(C)[C@H](NC(=O)[C@H](CCCNC(=N)N)NC(=O)[C@H](CCCCN)NC(=O)[C@H](CCCCN)NC(=O)[C@H](CCCNC(=N)N)NC(=O)[C@H](CCCNC(=N)N)NC(=O)[C@H](C)NC(=O)[C@H](CCC(=O)O)NC(=O)[C@H](CCCNC(=N)N)NC(=O)[C@@H]1CCCN1C(=O)[C@@H](N)[C@@H](C)O)C(N)=O (H-TPREARRKKRV-NH2) | > 100 nM |
| C[C@H](NC(=O)[C@H](CCCNC(=N)N)NC(=O)[C@H](CCCNC(=N)N)NC(=O)[C@H](CCC(=O)O)NC(=O)[C@H](CCCNC(=N)N)NC(=O)[C@@H]1CCCN1C(=O)[C@@H](N)[C@@H](C)O)C(=O)N[C@@H](CCCCN)C(=O)N[C@@H](CCCCN)C(=O)N[C@@H](CCCNC(=N)N)C(N)=O (H-TPRERRAKKR-NH2) | > 100 nM |
| CC(C)[C@H](NC(=O)[C@H](CCCNC(=N)N)NC(=O)[C@H](CCCCN)NC(=O)[C@H](CCCCN)NC(=O)[C@H](CCCNC(=N)N)NC(=O)[C@H](CCCNC(=N)N)NC(=O)[C@H](CCCNC(=N)N)NC(=O)[C@H](CCC(=O)O)NC(=O)[C@H](C)NC(=O)[C@@H]1CCCN1C(=O)[C@@H](N)[C@@H](C)O)C(N)=O (H-TPAERRRKKRV-NH2) | > 100 nM |
| C[C@H](NC(=O)[C@H](CCCCN)NC(=O)[C@H](CCCCN)NC(=O)[C@H](CCCNC(=N)N)NC(=O)[C@H](CCCNC(=N)N)NC(=O)[C@H](CCCNC(=N)N)NC(=O)[C@H](CCC(=O)O)NC(=O)[C@H](CCCNC(=N)N)NC(=O)[C@@H]1CCCN1C(=O)[C@@H](N)[C@@H](C)O)C(=O)N(C)CC(N)=O (H-TPRERRRKKA[Sar]-NH2) | > 100 nM |
| C[C@H](NC(=O)[C@H](C)NC(=O)[C@@H](N)[C@@H](C)O)C(=O)N[C@@H](CCC(=O)O)C(=O)N[C@@H](CCCNC(=N)N)C(=O)N[C@@H](CCCNC(=N)N)C(=O)N[C@@H](CCCNC(=N)N)C(=O)N[C@@H](CCCCN)C(=O)N[C@@H](CCCCN)C(=O)N[C@@H](CCCNC(=N)N)C(N)=O (H-TAAERRRKKR-NH2) | > 100 nM |
| C[C@H](NC(=O)[C@H](C)NC(=O)[C@H](CCCNC(=N)N)NC(=O)[C@H](CCC(=O)O)NC(=O)[C@H](CCCNC(=N)N)NC(=O)[C@@H]1CCCN1C(=O)[C@@H](N)[C@@H](C)O)C(=O)N[C@@H](CCCCN)C(=O)N[C@@H](CCCCN)C(=O)N[C@@H](CCCNC(=N)N)C(=O)NCC(N)=O (H-TPRERAAKKRG-NH2) | > 100 nM |
| C[C@H](NC(=O)[C@H](C)NC(=O)[C@H](CCCNC(=N)N)NC(=O)[C@H](CCCNC(=N)N)NC(=O)[C@H](CCC(=O)O)NC(=O)[C@H](CCCNC(=N)N)NC(=O)[C@@H]1CCCN1C(=O)[C@@H](N)[C@@H](C)O)C(=O)N[C@@H](CCCCN)C(=O)N[C@@H](CCCNC(=N)N)C(N)=O (H-TPRERRAAKR-NH2) | > 100 nM |
| C[C@H](NC(=O)[C@H](C)NC(=O)[C@H](CCC(=O)O)NC(=O)[C@H](CCCNC(=N)N)NC(=O)[C@@H]1CCCN1C(=O)[C@@H](N)[C@@H](C)O)C(=O)N[C@@H](CCCNC(=N)N)C(=O)N[C@@H](CCCCN)C(=O)N[C@@H](CCCCN)C(=O)N[C@@H](CCCNC(=N)N)C(N)=O (H-TPREAARKKR-NH2) | > 100 nM |
| C[C@H](NC(=O)[C@H](CCCNC(=N)N)NC(=O)[C@@H]1CCCN1C(=O)[C@@H](N)[C@@H](C)O)C(=O)N[C@@H](CCCNC(=N)N)C(=O)N[C@@H](CCCNC(=N)N)C(=O)N[C@@H](CCCNC(=N)N)C(=O)N[C@@H](CCCCN)C(=O)N[C@@H](CCCCN)C(=O)N[C@@H](CCCNC(=N)N)C(=O)N(C)CC(N)=O | > 100 nM |
| C[C@H](NC(=O)[C@H](CCCCN)NC(=O)[C@H](CCCNC(=N)N)NC(=O)[C@H](CCCNC(=N)N)NC(=O)[C@H](CCCNC(=N)N)NC(=O)[C@H](CCC(=O)O)NC(=O)[C@H](CCCNC(=N)N)NC(=O)[C@@H]1CCCN1C(=O)[C@@H](N)[C@@H](C)O)C(=O)N[C@@H](CCCNC(=N)N)C(=O)N(C)CC(N)=O (H-TPRERRRKAR[Sar]-NH2) | > 100 nM |
| CC(C)[C@H](NC(=O)[C@H](CCCNC(=N)N)NC(=O)[C@H](CCCCN)NC(=O)[C@H](CCCCN)NC(=O)[C@H](C)NC(=O)[C@H](C)NC(=O)[C@H](CCCNC(=N)N)NC(=O)[C@H](CCC(=O)O)NC(=O)[C@H](CCCNC(=N)N)NC(=O)[C@@H]1CCCN1C(=O)[C@@H](N)[C@@H](C)O)C(N)=O (H-TPRERAAKKRV-NH2) | > 100 nM |
| C[C@H](N)C(=O)N[C@@H](C)C(=O)N[C@@H](C)C(=O)N[C@@H](CCC(=O)O)C(=O)N[C@@H](CCCNC(=N)N)C(=O)N[C@@H](CCCNC(=N)N)C(=O)N[C@@H](CCCNC(=N)N)C(=O)N[C@@H](CCCCN)C(=O)N[C@@H](CCCCN)C(=O)N[C@@H](CCCNC(=N)N)C(=O)NCC(N)=O (H-AAAERRRKKRG-NH2) | > 100 nM |
| C[C@H](NC(=O)[C@H](CCCCN)NC(=O)[C@H](CCCCN)NC(=O)[C@H](CCCNC(=N)N)NC(=O)[C@H](CCCNC(=N)N)NC(=O)[C@H](CCCNC(=N)N)NC(=O)[C@H](CCC(=O)O)NC(=O)[C@H](CCCNC(=N)N)NC(=O)[C@@H]1CCCN1C(=O)[C@@H](N)[C@@H](C)O)C(N)=O (H-TPRERRRKKA-NH2) | > 100 nM |

Same assay, conditions: furin, Pyr-RTKR-AMC substrate; optimization of the inhibitory peptides (Table 3); read-out: Ki

| Structure (SMILES) | Ki |
| --- | --- |
| C[C@@H](O)[C@H](N)C(=O)N1CCC[C@H]1C(=O)N[C@@H](CCC(N)=O)C(=O)N[C@@H](CCCNC(=N)N)C(=O)N[C@@H](CC1CCCCC1)C(=O)N[C@@H](CCCNC(=N)N)C(=O)N[C@@H](CCCNC(=N)N)C(=O)N[C@@H](CCCNC(=N)N)C(=O)N[C@@H](CCCCN)C(=O)N[C@@H](CCCCN)C(=O)N[C@@H](CCCNC(=N)N)C(=O)NCC(N)=O [TPQR7RRRKKRG] | > 100 nM |
| CCCC[C@H](NC(=O)[C@H](CCCNC(=N)N)NC(=O)[C@H](CCCCN)NC(=O)[C@H](CCCCN)NC(=O)[C@H](CCCNC(=N)N)NC(=O)[C@H](CCCNC(=N)N)NC(=O)[C@H](CCCNC(=N)N)NC(=O)[C@H](C)NC(=O)[C@H](CCCNC(=N)N)NC(=O)[C@H](CCC(N)=O)NC(=O)[C@@H]1CCCN1C(=O)[C@@H](N)[C@@H](C)O)C(N)=O (H-TPQRARRRKKR[Nle]-NH2) | > 100 nM |
| C[C@H](NC(=O)[C@H](CCCNC(=N)N)NC(=O)[C@H](CCC(N)=O)NC(=O)[C@@H]1CCCN1C(=O)[C@@H](N)[C@@H](C)O)C(=O)N[C@@H](CCCNC(=N)N)C(=O)N[C@@H](CCCNC(=N)N)C(=O)N[C@@H](CCCNC(=N)N)C(=O)N[C@@H](CCCCN)C(=O)N[C@@H](CCCCN)C(=O)N[C@@H](CCCNC(=N)N)C(=O)N[C@@H](CO)C(N)=O (H-TPQRARRRKKRS-NH2) | > 100 nM |
| CC[C@H](NC(=O)[C@H](CCCNC(=N)N)NC(=O)[C@H](CCC(N)=O)NC(=O)[C@@H]1CCCN1C(=O)[C@@H](N)[C@@H](C)O)C(=O)N[C@@H](CCCNC(=N)N)C(=O)N[C@@H](CCCNC(=N)N)C(=O)N[C@@H](CCCNC(=N)N)C(=O)N[C@@H](CCCCN)C(=O)N[C@@H](CCCCN)C(=O)N[C@@H](CCCNC(=N)N)C(=O)NCC(N)=O [TPQR8RRRKKRG] | > 100 nM |
| C[C@H](NC(=O)[C@H](CCCNC(=N)N)NC(=O)[C@H](CCC(N)=O)NC(=O)[C@@H]1CCCN1C(=O)[C@@H](N)[C@@H](C)O)C(=O)N[C@@H](CCCNC(=N)N)C(=O)N[C@@H](CCCNC(=N)N)C(=O)N[C@@H](CCCNC(=N)N)C(=O)N[C@@H](CCCCN)C(=O)N[C@@H](CCCCN)C(=O)N[C@@H](CCCNC(=N)N)C(=O)N[C@@H](CCCCN)C(N)=O (H-TPQRARRRKKRK-NH2) | > 100 nM |
| C[C@H](NC(=O)[C@H](CCCNC(=N)N)NC(=O)[C@H](CCC(N)=O)NC(=O)[C@@H]1CCCN1C(=O)[C@@H](N)[C@@H](C)O)C(=O)N[C@@H](CCCNC(=N)N)C(=O)N[C@@H](CCCNC(=N)N)C(=O)N[C@@H](CCCNC(=N)N)C(=O)N[C@@H](CCCCN)C(=O)N[C@@H](CCCCN)C(=O)N[C@@H](CCCNC(=N)N)C(=O)N[C@H](C(N)=O)[C@@H](C)O (H-TPQRARRRKKRT-NH2) | 33 nM |
| C[C@@H](O)[C@H](N)C(=O)N1CCC[C@H]1C(=O)N[C@@H](CCC(N)=O)C(=O)N[C@@H](CCCNC(=N)N)C(=O)N[C@@H](CO)C(=O)N[C@@H](CCCNC(=N)N)C(=O)N[C@@H](CCCNC(=N)N)C(=O)N[C@@H](CCCNC(=N)N)C(=O)N[C@@H](CCCCN)C(=O)N[C@@H](CCCCN)C(=O)N[C@@H](CCCNC(=N)N)C(=O)NCC(N)=O (H-TPQRSRRRKKRG-NH2) | > 100 nM |
| C[C@@H](O)[C@H](N)C(=O)N1CCC[C@H]1C(=O)N[C@@H](CCC(N)=O)C(=O)N[C@@H](CCCNC(=N)N)C(=O)N[C@@H](CC(N)=O)C(=O)N[C@@H](CCCNC(=N)N)C(=O)N[C@@H](CCCNC(=N)N)C(=O)N[C@@H](CCCNC(=N)N)C(=O)N[C@@H](CCCCN)C(=O)N[C@@H](CCCCN)C(=O)N[C@@H](CCCNC(=N)N)C(=O)NCC(N)=O (H-TPQRNRRRKKRG-NH2) | > 100 nM |
| C[C@@H](O)[C@H](N)C(=O)N1CCC[C@H]1C(=O)N[C@@H](CCC(N)=O)C(=O)N[C@@H](CCCNC(=N)N)C(=O)N[C@H](C(=O)N[C@@H](CCCNC(=N)N)C(=O)N[C@@H](CCCNC(=N)N)C(=O)N[C@@H](CCCNC(=N)N)C(=O)N[C@@H](CCCCN)C(=O)N[C@@H](CCCCN)C(=O)N[C@@H](CCCNC(=N)N)C(=O)NCC(N)=O)[C@@H](C)O (H-TPQRTRRRKKRG-NH2) | > 100 nM |
| C[C@H](NC(=O)[C@H](CCCNC(=N)N)NC(=O)[C@H](CCC(N)=O)NC(=O)[C@@H]1CCCN1C(=O)[C@@H](N)[C@@H](C)O)C(=O)N[C@@H](CCCNC(=N)N)C(=O)N[C@@H](CCCNC(=N)N)C(=O)N[C@@H](CCCNC(=N)N)C(=O)N[C@@H](CCCCN)C(=O)N[C@@H](CCCCN)C(=O)N[C@@H](CCCNC(N)=O)C(=O)NCC(N)=O | > 100 nM |
| C[C@@H](O)[C@H](N)C(=O)N1CCC[C@H]1C(=O)N[C@@H](CCC(N)=O)C(=O)N[C@@H](CCCNC(=N)N)C(=O)N[C@@H](Cc1ccc(O)cc1)C(=O)N[C@@H](CCCNC(=N)N)C(=O)N[C@@H](CCCNC(=N)N)C(=O)N[C@@H](CCCNC(=N)N)C(=O)N[C@@H](CCCCN)C(=O)N[C@@H](CCCCN)C(=O)N[C@@H](CCCNC(=N)N)C(=O)NCC(N)=O (H-TPQRYRRRKKRG-NH2) | > 100 nM |

Source: patent US8053553B2, “Targeting host proteinases as a therapeutic strategy against viral and bacterial pathogens” (Socpra Sciences Sante Et Humaines, priority 2007, dated 2011)
